Experiments:
[1] = Half life in mouse at 3 mg/kg, iv measured after 8 hrs by LC-MS/MS analysis; type: ADME, organism-based; conditions: in vivo
[2] = AUC(0 to 8 h)in mouse plasma at 3 mg/kg, po measured at 24 hrs by LC-MS/MS analysis; type: ADME, organism-based; parameters: route oral, dose 3 mg/kg, time 24 hrs; conditions: in vivo
[3] = Drug concentration in mouse plasma at 3 mg/kg, po measured at 12 hrs by LC-MS/MS analysis; type: ADME, organism-based
Cytochrome P450 2C19 = Cytochrome P450 2C19 (Homo sapiens, UniProt P33261); assay: Inhibition of CYP2C19 (unknown origin); type: ADME
[4] = Metabolic stability in rat liver microsomes assessed compound remaining measured after 10 mins in presence of NADPH; type: ADME, Microsome; conditions: read-out: Stability
Homo sapiens [5] = species on record: Homo sapiens; assay: Selectivity index, ratio of IC50 for inhibition of mu opioid receptor (unknown origin) to IC50 for antagonist activity at human CXCR4 receptor expressed in CCRF-CEM cells; type: cell-based
[6] = Permeability of compound at pH 5.5 incubated for 4 hrs by PAMPA assay; type: ADME; conditions: read-out: permeability
[7] = target: C-C chemokine receptor type 6 (Homo sapiens) (UniProt P51684); assay: Inhibition of human CCR6 at 10 uM relative to control
[8] = Cmax in mouse at 3 mg/kg, po measured after 8 hrs by LC-MS/MS analysis; type: ADME, organism-based; parameters: route oral, time 8 hrs, dose 3 mg/kg; conditions: in vivo
[9] = AUC(0 to 8 h) in mouse plasma at 10 mg/kg, po measured at 24 hrs by LC-MS/MS analysis; type: ADME, organism-based; parameters: route oral, dose 10 mg/kg, time 24 hrs; conditions: in vivo
[10] = Cmax in mouse at 10 mg/kg, po measured after 8 hrs by LC-MS/MS analysis; type: ADME, organism-based; parameters: route oral, time 8 hrs, dose 10 mg/kg; conditions: in vivo
Homo sapiens [11] = species on record: Homo sapiens; assay: Selectivity index, ratio of IC50 for inhibition of dopamine D2 receptor (unknown origin) to IC50 for antagonist activity at human CXCR4 receptor expressed in CCRF-CEM cells; type: cell-based
Cytochrome P450 3A4 = Cytochrome P450 3A4 (Homo sapiens, UniProt P08684); assay: Inhibition of CYP3A4 (unknown origin); type: ADME
Homo sapiens [12] = species on record: Homo sapiens; assay: Selectivity index, ratio of IC50 for inhibition of alpha7 nicotinic acetylcholine receptor (unknown origin) to IC50 for antagonist activity at human CXCR4 receptor expressed in CCRF-CEM cells; type: cell-based
[13] = AUC(0 to 8 h) in mouse plasma at 3 mg/kg, iv measured at 24 hrs by LC-MS/MS analysis; type: ADME, organism-based; parameters: route intravenous, time 24 hrs, dose 3 mg/kg; conditions: in vivo
[14] = tested on: Human immunodeficiency virus 1; assay: Antiviral activity against HIV-1 Z1800M E4.02 (R5) pseudovirus infected in human TZM-blcells assessed as reduction in viral infectivity measured after 48 hrs of postinfection by luminescence assay; type: functional, organism-based; conditions: Human immunodeficiency virus 1, Z1800M E4.02 (R5), TZM-bl
Homo sapiens [15] = species on record: Homo sapiens; assay: Selectivity index, ratio of IC50 for inhibition of recombinant human CYP2C9 to IC50 for antagonist activity at human CXCR4 receptor expressed in CCRF-CEM cells; type: cell-based
[16] = Oral bioavailability in mouse at 3 mg/kg measured at 24 hrs by LC-MS/MS analysis; type: ADME, organism-based; conditions: in vivo
[17] = Volume of distribution in mouse at 3 mg/kg, measured at 24 hrs by LC-MS analysis; type: ADME, organism-based; conditions: in vivo
Cytochrome P450 1A2 = Cytochrome P450 1A2 (Homo sapiens, UniProt P05177); assay: Inhibition of CYP1A2(unknown origin); type: ADME
Homo sapiens [18] = species on record: Homo sapiens; assay: Selectivity index, ratio of IC50 for inhibition of M2 mAChR receptor (unknown origin) to IC50 for antagonist activity at human CXCR4 receptor expressed in CCRF-CEM cells; type: cell-based
[19] = Therapeutic index, ratio of TC50 for human TZM-bl cells to IC50 for antiviral activity against HIV-1 NL4-3 (X4) pseudovirus infected in human TZM-bl cells assessed as reduction in viral infectivity; type: toxicity, cell-based
Homo sapiens [20] = species on record: Homo sapiens; assay: Selectivity index, ratio of IC50 for inhibition of recombinant human CYP2D6 to IC50 for antagonist activity at human CXCR4 receptor expressed in CCRF-CEM cells; type: cell-based
Homo sapiens [21] = species on record: Homo sapiens; assay: Selectivity index, ratio of IC50 for antagonist activity at mAChR (unknown origin) to IC50 for antagonist activity at human CXCR4 receptor
Cytochrome P450 2C9 = Cytochrome P450 2C9 (Homo sapiens, UniProt P11712); assay: Inhibition of CYP2C9 (unknown origin); type: ADME
[22] = Metabolic stability in mouse liver microsomes assessed compound remaining measured after 10 mins in presence of NADPH; type: ADME, Microsome; conditions: read-out: Stability
Homo sapiens [23] = species on record: Homo sapiens; assay: Selectivity index, ratio of IC50 for inhibition of kappa opioid receptor (unknown origin) to IC50 for antagonist activity at human CXCR4 receptor expressed in CCRF-CEM cells; type: cell-based
[24] = Drug concentration in mouse plasma at 10 mg/kg, po measured at 12 hrs by LC-MS/MS analysis; type: ADME, organism-based
[25] = AUC(0 to 8 h) in mouse plasma at 30 mg/kg, po measured at 24 hrs by LC-MS/MS analysis; type: ADME, organism-based; parameters: route oral, time 24 hrs, dose 30 mg/kg; conditions: in vivo
Homo sapiens [26] = species on record: Homo sapiens; assay: Selectivity index, ratio of IC50 for inhibition of recombinant human CYP3A4 to IC50 for antagonist activity at human CXCR4 receptor expressed in CCRF-CEM cells; type: cell-based
Cytochrome P450 2C8 = Cytochrome P450 2C8 (Homo sapiens, UniProt P10632); assay: Inhibition of CYP2C8 (unknown origin); type: ADME
[27] = Antagonist activity at human CXCR4 receptor expressed in CCRF-CEM cells assessed as inhibition of CXCL12-induced calcium release by calcium flux assay; type: cell-based
[28] = target: Kappa-type opioid receptor (Homo sapiens, UniProt P41145); assay: Inhibition of kappa opioid receptor (unknown origin)
[29] = Drug concentration in mouse plasma at 30 mg/kg, po measured at 12 hrs by LC-MS analysis; type: ADME, organism-based
Homo sapiens [30] = species on record: Homo sapiens; assay: Selectivity index, ratio of IC50 for inhibition of alpha 2C adrenergic receptor (unknown origin) to IC50 for antagonist activity at human CXCR4 receptor expressed in CCRF-CEM cells; type: cell-based
Homo sapiens [31] = species on record: Homo sapiens; assay: Selectivity index, ratio of IC50 for inhibition of hERG receptor (unknown origin) to IC50 for antagonist activity at human CXCR4 receptor expressed in CCRF-CEM cells; type: cell-based
Homo sapiens [32] = species on record: Homo sapiens; assay: Selectivity index, ratio of IC50 for inhibition of recombinant human CYP2C19 (unknown origin) to IC50 for antagonist activity at human CXCR4 receptor expressed in CCRF-CEM cells; type: cell-based
[33] = Permeability of compound at pH 7.4 incubated for 4 hrs by PAMPA assay; type: ADME; conditions: read-out: permeability
Mu-type opioid receptor = Mu-type opioid receptor (Homo sapiens, UniProt P35372); assay: Inhibition of mu opioid receptor (unknown origin)
[34] = target: C-C chemokine receptor type 7 (Homo sapiens) (UniProt P32248); assay: Inhibition of human CCR7 at 10 uM relative to control
Sequence of C-C chemokine receptor type 7 (Homo sapiens) (P32248 whole entry): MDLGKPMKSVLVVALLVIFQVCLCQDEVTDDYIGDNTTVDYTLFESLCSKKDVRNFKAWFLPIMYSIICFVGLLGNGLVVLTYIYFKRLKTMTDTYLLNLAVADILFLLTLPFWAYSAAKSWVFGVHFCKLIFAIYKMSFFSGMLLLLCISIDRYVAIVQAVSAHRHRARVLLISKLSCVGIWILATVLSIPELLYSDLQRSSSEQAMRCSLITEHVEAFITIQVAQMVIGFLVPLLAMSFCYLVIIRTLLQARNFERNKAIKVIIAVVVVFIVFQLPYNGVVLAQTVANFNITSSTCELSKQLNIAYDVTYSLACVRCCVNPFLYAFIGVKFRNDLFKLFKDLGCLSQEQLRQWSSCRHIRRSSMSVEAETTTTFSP

Sequence of Kappa-type opioid receptor (P41145 whole entry): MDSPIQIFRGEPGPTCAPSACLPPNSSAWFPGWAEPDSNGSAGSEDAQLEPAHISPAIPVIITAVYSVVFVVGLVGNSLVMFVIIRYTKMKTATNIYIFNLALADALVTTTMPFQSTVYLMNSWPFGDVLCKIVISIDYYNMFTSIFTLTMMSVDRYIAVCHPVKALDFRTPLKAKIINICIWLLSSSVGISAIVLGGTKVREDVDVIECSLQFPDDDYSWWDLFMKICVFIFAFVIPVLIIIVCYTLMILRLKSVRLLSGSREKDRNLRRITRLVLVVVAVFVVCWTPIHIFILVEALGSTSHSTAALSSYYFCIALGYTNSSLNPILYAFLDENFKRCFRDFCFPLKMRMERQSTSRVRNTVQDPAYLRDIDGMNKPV
Sequence of Cytochrome P450 2C9 (P11712 whole entry): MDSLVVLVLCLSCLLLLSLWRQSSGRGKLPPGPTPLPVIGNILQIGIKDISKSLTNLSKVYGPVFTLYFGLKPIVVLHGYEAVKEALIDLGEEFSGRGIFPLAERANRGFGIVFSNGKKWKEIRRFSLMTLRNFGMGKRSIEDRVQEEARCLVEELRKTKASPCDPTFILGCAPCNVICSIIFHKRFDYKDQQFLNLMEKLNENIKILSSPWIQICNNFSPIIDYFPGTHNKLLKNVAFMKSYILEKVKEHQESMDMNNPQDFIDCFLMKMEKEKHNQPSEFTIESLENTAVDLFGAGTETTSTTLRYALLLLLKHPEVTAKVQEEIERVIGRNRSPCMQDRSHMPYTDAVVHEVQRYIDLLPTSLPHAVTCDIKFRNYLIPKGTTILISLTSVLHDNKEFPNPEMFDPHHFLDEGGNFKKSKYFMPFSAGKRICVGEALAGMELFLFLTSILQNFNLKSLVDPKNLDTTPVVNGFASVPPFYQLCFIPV
Sequence of C-C chemokine receptor type 6 (Homo sapiens) (P51684 whole entry): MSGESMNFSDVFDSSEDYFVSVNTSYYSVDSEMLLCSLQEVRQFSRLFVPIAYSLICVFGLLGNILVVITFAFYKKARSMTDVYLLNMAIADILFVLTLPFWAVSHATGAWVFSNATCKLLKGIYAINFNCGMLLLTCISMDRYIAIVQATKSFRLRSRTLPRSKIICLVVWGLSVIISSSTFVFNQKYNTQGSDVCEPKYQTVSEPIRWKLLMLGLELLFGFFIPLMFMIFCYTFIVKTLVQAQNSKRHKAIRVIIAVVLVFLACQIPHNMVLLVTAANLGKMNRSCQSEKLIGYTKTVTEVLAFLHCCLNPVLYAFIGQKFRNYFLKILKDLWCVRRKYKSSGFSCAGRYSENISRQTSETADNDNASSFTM
Sequence of Cytochrome P450 1A2 (P05177 whole entry): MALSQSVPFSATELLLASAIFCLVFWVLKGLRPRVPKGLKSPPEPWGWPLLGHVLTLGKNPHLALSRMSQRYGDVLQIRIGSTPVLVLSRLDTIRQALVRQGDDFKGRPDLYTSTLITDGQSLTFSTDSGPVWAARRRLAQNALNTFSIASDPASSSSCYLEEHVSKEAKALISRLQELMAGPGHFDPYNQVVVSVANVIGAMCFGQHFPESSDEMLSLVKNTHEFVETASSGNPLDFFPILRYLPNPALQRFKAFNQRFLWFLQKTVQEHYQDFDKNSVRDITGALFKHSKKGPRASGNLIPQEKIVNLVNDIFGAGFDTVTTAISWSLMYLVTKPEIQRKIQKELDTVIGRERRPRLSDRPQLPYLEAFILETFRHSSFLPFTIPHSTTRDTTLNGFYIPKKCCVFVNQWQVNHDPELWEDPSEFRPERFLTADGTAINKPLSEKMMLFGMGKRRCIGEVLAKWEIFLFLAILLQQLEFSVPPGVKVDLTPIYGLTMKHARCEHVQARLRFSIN
Sequence of Mu-type opioid receptor (P35372 whole entry): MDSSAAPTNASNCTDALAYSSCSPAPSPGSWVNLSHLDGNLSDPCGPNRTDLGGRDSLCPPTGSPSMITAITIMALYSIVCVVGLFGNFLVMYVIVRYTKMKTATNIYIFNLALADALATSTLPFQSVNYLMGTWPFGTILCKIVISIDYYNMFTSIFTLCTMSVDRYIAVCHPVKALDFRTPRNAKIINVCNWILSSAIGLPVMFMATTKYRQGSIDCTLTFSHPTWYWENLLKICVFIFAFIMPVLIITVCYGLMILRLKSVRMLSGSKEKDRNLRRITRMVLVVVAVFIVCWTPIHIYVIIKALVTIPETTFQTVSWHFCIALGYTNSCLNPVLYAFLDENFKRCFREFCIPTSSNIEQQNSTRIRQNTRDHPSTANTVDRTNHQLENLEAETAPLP
Sequence of Cytochrome P450 2C19 (P33261 whole entry): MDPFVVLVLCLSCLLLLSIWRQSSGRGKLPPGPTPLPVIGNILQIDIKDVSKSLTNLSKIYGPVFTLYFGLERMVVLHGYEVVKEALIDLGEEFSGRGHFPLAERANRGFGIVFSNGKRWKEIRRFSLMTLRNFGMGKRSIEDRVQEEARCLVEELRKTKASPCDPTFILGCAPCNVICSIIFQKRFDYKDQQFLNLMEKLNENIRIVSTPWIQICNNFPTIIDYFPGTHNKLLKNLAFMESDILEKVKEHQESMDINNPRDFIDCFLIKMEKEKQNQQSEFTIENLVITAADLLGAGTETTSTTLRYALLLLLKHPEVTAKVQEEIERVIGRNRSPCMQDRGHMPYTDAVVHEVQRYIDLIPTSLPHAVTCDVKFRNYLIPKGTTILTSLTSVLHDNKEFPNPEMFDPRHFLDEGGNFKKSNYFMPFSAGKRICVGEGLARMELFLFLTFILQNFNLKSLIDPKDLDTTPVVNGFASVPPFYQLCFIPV
Sequence of Cytochrome P450 3A4 (P08684 whole entry): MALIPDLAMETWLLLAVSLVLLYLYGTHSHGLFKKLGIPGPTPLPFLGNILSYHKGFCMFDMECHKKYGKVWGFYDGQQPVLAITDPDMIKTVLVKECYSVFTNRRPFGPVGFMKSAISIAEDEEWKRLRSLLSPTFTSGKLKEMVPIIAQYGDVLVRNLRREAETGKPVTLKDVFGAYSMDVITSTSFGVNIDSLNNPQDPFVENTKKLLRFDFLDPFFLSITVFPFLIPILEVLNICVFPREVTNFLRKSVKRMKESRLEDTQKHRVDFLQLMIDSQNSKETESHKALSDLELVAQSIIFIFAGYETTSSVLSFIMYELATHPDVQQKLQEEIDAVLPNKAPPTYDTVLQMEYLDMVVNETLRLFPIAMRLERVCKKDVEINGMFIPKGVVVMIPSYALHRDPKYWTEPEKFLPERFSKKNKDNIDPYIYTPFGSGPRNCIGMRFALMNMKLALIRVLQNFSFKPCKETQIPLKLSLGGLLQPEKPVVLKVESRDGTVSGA
Sequence of Cytochrome P450 2C8 (P10632 whole entry): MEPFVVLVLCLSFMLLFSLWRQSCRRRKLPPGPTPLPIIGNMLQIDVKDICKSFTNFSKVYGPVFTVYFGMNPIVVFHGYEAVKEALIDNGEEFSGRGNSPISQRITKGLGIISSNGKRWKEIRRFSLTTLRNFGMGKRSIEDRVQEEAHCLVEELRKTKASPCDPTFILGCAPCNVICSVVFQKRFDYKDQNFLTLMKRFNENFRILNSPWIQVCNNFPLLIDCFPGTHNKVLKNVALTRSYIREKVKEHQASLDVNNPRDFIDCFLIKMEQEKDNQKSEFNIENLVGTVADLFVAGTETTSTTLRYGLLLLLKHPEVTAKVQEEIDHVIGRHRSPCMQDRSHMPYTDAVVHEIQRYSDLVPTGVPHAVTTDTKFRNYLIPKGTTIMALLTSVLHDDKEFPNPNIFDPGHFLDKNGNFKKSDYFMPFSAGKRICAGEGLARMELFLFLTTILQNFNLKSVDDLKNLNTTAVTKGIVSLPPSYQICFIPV

Work on `CN(CCCCN(C[C@H]1Cc2ncccc2CN1)[C@H]1CCCc2cccnc21)C1CCC(F)(F)CC1` yielded a half-life [1] of 5.89 h, an AUC [2] of 34.3 h/ng/mL and a concentration at 12 h [3] of 1.5 ng/mL. It also gave an IC50 (Cytochrome P450 2C19) of over 20 µM, a remaining at 10 min [4] of 8% and a Selectivity Index (Homo sapiens [5]) of over 1000. It also gave a Papp at 4 h [6] of 1.5 ×10⁻⁶ cm/s, an inhibition [7] of under 5% and a Cmax [8] of 12.8 ng/mL. For the same molecule, the AUC [9] was 190 h/ng/mL, the Cmax [10] was 54.8 ng/mL and the Selectivity Index (Homo sapiens [11]) was over 1000. For the same molecule, the IC50 (Cytochrome P450 3A4) was over 20 µM, the Selectivity Index (Homo sapiens [12]) was over 1000 and the AUC [13] was 265 h/ng/mL. For the same molecule, the IC50 [14] was over 10 µM, the Selectivity Index (Homo sapiens [15]) was over 710 and the bioavailability [16] was 12.9%. For the same molecule, the Vd [17] was 96.3 L/kg, the IC50 (Cytochrome P450 1A2) was over 20 µM and the Selectivity Index (Homo sapiens [18]) was over 1000. For the same molecule, the selectivity ratio [19] was over 1000, the Selectivity Index (Homo sapiens [20]) was 540 and the Selectivity Index (Homo sapiens [21]) was over 710. For the same molecule, the IC50 (Cytochrome P450 2C9) was over 20 µM, the remaining at 10 min [22] was 35% and the Selectivity Index (Homo sapiens [23]) was over 1000. The concentration at 12 h [24] was 14.3 ng/mL, the AUC [25] was 717 h/ng/mL and the Selectivity Index (Homo sapiens [26]) was over 710. For the same molecule, the IC50 (Cytochrome P450 2C8) was over 20 µM, the IC50 [27] was 0.024 µM and the IC50 [28] was over 30 µM. It also gave a concentration at 12 h [29] of 34.8 ng/mL, a Selectivity Index (Homo sapiens [30]) of over 1000 and a Selectivity Index (Homo sapiens [31]) of over 1000. It also gave a Selectivity Index (Homo sapiens [32]) of over 710, a Papp at 4 h [33] of 31 ×10⁻⁶ cm/s and an IC50 (Mu-type opioid receptor) of over 30 µM. The inhibition [34] was under 5%.

From ChEMBL document CHEMBL5046278, “Synthesis and Evaluation of Novel Tetrahydronaphthyridine CXCR4 Antagonists with Improved Drug-like Profiles” (J Med Chem, 2022)
